Assay results from patent US9169279B2, “Crystallization method and bioavailability” (THAR PHARMACEUTICALS, INC., priority 2009, dated 2015).
Read-outs that look alike come from different tables or passages of the source.

How the values were obtained:
[1] = according to FDA Summary Basis of Approval; cited from earlier work
[2] = cited from earlier work
[3] = Dog PK study: zoledronic acid in serum after IV or oral capsule dosing, enteric or non-enteric coated, with or without excess coformer (LC/MS/MS); format: in vivo, Beagle dogs; settings: beagle
Source text: This can be attributed to the fact that both animals have historically been used in the safety evaluation and PK screening studies and are recommended by appropriate regulatory agencies. […] Additional tests included ID administration in rats and administration of enteric coated capsules in dogs.
USA. Some animals have surgical catheters (jugular vein and intraduodenum) were implanted to the animals prior to the studies. Beagle dogs from Marshall Farms, N.Y., USA, weighing from (9-12 kg) were used in the studies presented herein. Surgical catheters (jugular vein) were implanted prior to the studies.
The dose volume of each dog was adjusted based upon the average weight of the dog. • ii. […]
Blood samples were placed without the use of an anticoagulant and allowed to sit at room temperature for approximately 30 minutes. Samples were then centrifuged at a temperature of 4° C., at a speed of 13,000 rpm, for 5 minutes. Serum was collected and split into two aliquots and stored frozen (−80° C.) until analysis.
In this study, capsules of particulate materials (zoledronic:DL-lysine:water complex and excess pure DL-lysine).

Structure (SMILES): O=P(O)(O)C(O)(Cn1ccnc1)P(=O)(O)O [Zoledronic acid, (1-hydroxy-2-imidazol-1-yl-1-phosphono-ethyl)phosphonic acid]
- oral bioavailability [1]: approximately 1%
- solubility ([2]; in 0.1 N HCl solution): sparingly soluble
- solubility ([2]; in 0.1 N NaOH): freely soluble
- solubility ([2]; in various organic solvents): practically insoluble
- solubility ([2]; in water): sparingly soluble
- bioavailability ([3]; Leg 37: 63.1 mg Zoledronic, DL-lysine, and water complex with 1965.7 mg DL-lysine monohydrate, PO gelatin capsules): > 8%
- concentration at 0 h ([3]; intravenous, 0.12 mg/kg, Leg 18, 15 min IV infusion 0.12 mg/kg, saline solution, Time 0 hour (pre-dose), read-out: Average serum concentration of 5 dogs): 0 ng/mL
- concentration at 5 min ([3]; intravenous, 0.12 mg/kg, Leg 18, 15 min IV infusion 0.12 mg/kg, saline solution, Time 0.0833 hour, read-out: Average serum concentration of 5 dogs): 309 ng/mL
- concentration at 10 min ([3]; intravenous, 0.12 mg/kg, Leg 18, 15 min IV infusion 0.12 mg/kg, saline solution, Time 0.1667 hour, read-out: Average serum concentration of 5 dogs): 525 ng/mL
- concentration at 0.25 h ([3]; intravenous, 0.12 mg/kg, Leg 18, 15 min IV infusion 0.12 mg/kg, saline solution, Time 0.25 hour, read-out: Average serum concentration of 5 dogs): 717 ng/mL
- concentration at 25 min ([3]; intravenous, 0.12 mg/kg, Leg 18, 15 min IV infusion 0.12 mg/kg, saline solution, Time 0.4167 hour, read-out: Average serum concentration of 5 dogs): 392 ng/mL
- concentration at 0.5 h ([3]; intravenous, 0.12 mg/kg, Leg 18, 15 min IV infusion 0.12 mg/kg, saline solution, Time 0.5 hour, read-out: Average serum concentration of 5 dogs): 323 ng/mL
- concentration at 0.75 h ([3]; intravenous, 0.12 mg/kg, Leg 18, 15 min IV infusion 0.12 mg/kg, saline solution, Time 0.75 hour, read-out: Average serum concentration of 5 dogs): 202 ng/mL
- concentration at 1 h ([3]; intravenous, 0.12 mg/kg, Leg 18, 15 min IV infusion 0.12 mg/kg, saline solution, Time 1 hour, read-out: Average serum concentration of 5 dogs): 133 ng/mL
- concentration at 1.25 h ([3]; intravenous, 0.12 mg/kg, Leg 18, 15 min IV infusion 0.12 mg/kg, saline solution, Time 1.25 hour, read-out: Average serum concentration of 5 dogs): 93.2 ng/mL
- concentration at 1.5 h ([3]; intravenous, 0.12 mg/kg, Leg 18, 15 min IV infusion 0.12 mg/kg, saline solution, Time 1.5 hour, read-out: Average serum concentration of 5 dogs): 69.1 ng/mL
- concentration at 2 h ([3]; intravenous, 0.12 mg/kg, Leg 18, 15 min IV infusion 0.12 mg/kg, saline solution, Time 2 hour, read-out: Average serum concentration of 5 dogs): 38.4 ng/mL
- concentration at 4 h ([3]; intravenous, 0.12 mg/kg, Leg 18, 15 min IV infusion 0.12 mg/kg, saline solution, Time 4 hour, read-out: Average serum concentration of 5 dogs): 9.14 ng/mL
- concentration at 8 h ([3]; intravenous, 0.12 mg/kg, Leg 18, 15 min IV infusion 0.12 mg/kg, saline solution, Time 8 hour, read-out: Average serum concentration of 5 dogs): 3.24 ng/mL
- concentration at 24 h ([3]; intravenous, 0.12 mg/kg, Leg 18, 15 min IV infusion 0.12 mg/kg, saline solution, Time 24 hour, read-out: Average serum concentration of 5 dogs): 1.21 ng/mL
- concentration at 0.0333 hour ([3]; iv, 0.05 mg/kg, zoledronic acid in dog serum, Leg 1, IV 0.05 mg/kg, saline solution, Time 0.0333 hour, read-out: Average serum concentration of 5 dogs): 413 ng/mL
- concentration at 0.0833 hour ([3]; iv, 0.05 mg/kg, zoledronic acid in dog serum, Leg 1, IV 0.05 mg/kg, saline solution, Time 0.0833 hour, read-out: Average serum concentration of 5 dogs): 312 ng/mL
- concentration at 0.1667 hour ([3]; iv, 0.05 mg/kg, zoledronic acid in dog serum, Leg 1, IV 0.05 mg/kg, saline solution, Time 0.1667 hour, read-out: Average serum concentration of 5 dogs): 229 ng/mL
- concentration at 0.25 hour ([3]; iv, 0.05 mg/kg, zoledronic acid in dog serum, Leg 1, IV 0.05 mg/kg, saline solution, Time 0.25 hour, read-out: Average serum concentration of 5 dogs): 179 ng/mL
- concentration at 0.75 hour ([3]; iv, 0.05 mg/kg, zoledronic acid in dog serum, Leg 1, IV 0.05 mg/kg, saline solution, Time 0.75 hour, read-out: Average serum concentration of 5 dogs): 75.9 ng/mL
- concentration at 1 hour ([3]; iv, 0.05 mg/kg, zoledronic acid in dog serum, Leg 1, IV 0.05 mg/kg, saline solution, Time 1 hour, read-out: Average serum concentration of 5 dogs): 56.1 ng/mL
- concentration at 1.5 hour ([3]; iv, 0.05 mg/kg, zoledronic acid in dog serum, Leg 1, IV 0.05 mg/kg, saline solution, Time 1.5 hour, read-out: Average serum concentration of 5 dogs): 30.4 ng/mL
- concentration at 2 hour ([3]; iv, 0.05 mg/kg, zoledronic acid in dog serum, Leg 1, IV 0.05 mg/kg, saline solution, Time 2 hour, read-out: Average serum concentration of 5 dogs): 17.6 ng/mL
- concentration at 4 hour ([3]; iv, 0.05 mg/kg, zoledronic acid in dog serum, Leg 1, IV 0.05 mg/kg, saline solution, Time 4 hour, read-out: Average serum concentration of 5 dogs): 4.29 ng/mL
- concentration at 8 hour ([3]; iv, 0.05 mg/kg, zoledronic acid in dog serum, Leg 1, IV 0.05 mg/kg, saline solution, Time 8 hour, read-out: Average serum concentration of 5 dogs): 1.13 ng/mL
- concentration at 24 hour ([3]; iv, 0.05 mg/kg, zoledronic acid in dog serum, Leg 1, IV 0.05 mg/kg, saline solution, Time 24 hour, read-out: Average serum concentration of 5 dogs): 0 ng/mL
- concentration at 48 hour ([3]; iv, 0.05 mg/kg, zoledronic acid in dog serum, Leg 1, IV 0.05 mg/kg, saline solution, Time 48 hour, read-out: Average serum concentration of 5 dogs): 0 ng/mL
- concentration at 0 h ([3]; iv, 0.12 mg/kg, Leg 38, 0.12 mg/kg IV, saline solution, 0 h, read-out: Average serum concentration of 4 dogs): 0 ng/mL
- concentration at 5 min ([3]; iv, 0.12 mg/kg, Leg 38, 0.12 mg/kg IV, saline solution, 5 min, read-out: Average serum concentration of 4 dogs): 288 ng/mL
- concentration at 10 min ([3]; iv, 0.12 mg/kg, Leg 38, 0.12 mg/kg IV, saline solution, 10 min, read-out: Average serum concentration of 4 dogs): 542 ng/mL
- concentration at 0.25 h ([3]; iv, 0.12 mg/kg, Leg 38, 0.12 mg/kg IV, saline solution, 0.25 h, read-out: Average serum concentration of 4 dogs): 711 ng/mL
- concentration at 20 min ([3]; iv, 0.12 mg/kg, Leg 38, 0.12 mg/kg IV, saline solution, read-out: Average serum concentration of 4 dogs): 529 ng/mL
- concentration at 25 min ([3]; iv, 0.12 mg/kg, Leg 38, 0.12 mg/kg IV, saline solution, 25 min, read-out: Average serum concentration of 4 dogs): 406 ng/mL
- concentration at 0.5 h ([3]; iv, 0.12 mg/kg, Leg 38, 0.12 mg/kg IV, saline solution, 0.5 h, read-out: Average serum concentration of 4 dogs): 358 ng/mL
- concentration at 0.75 h ([3]; iv, 0.12 mg/kg, Leg 38, 0.12 mg/kg IV, saline solution, 0.75 h, read-out: Average serum concentration of 4 dogs): 240 ng/mL
- concentration at 1 h ([3]; iv, 0.12 mg/kg, Leg 38, 0.12 mg/kg IV, saline solution, 1 h, read-out: Average serum concentration of 4 dogs): 174 ng/mL
- concentration at 1.25 h ([3]; iv, 0.12 mg/kg, Leg 38, 0.12 mg/kg IV, saline solution, 1.25 h, read-out: Average serum concentration of 4 dogs): 121 ng/mL
- concentration at 1.5 h ([3]; iv, 0.12 mg/kg, Leg 38, 0.12 mg/kg IV, saline solution, 1.5 h, read-out: Average serum concentration of 4 dogs): 90.6 ng/mL
- concentration at 2 h ([3]; iv, 0.12 mg/kg, Leg 38, 0.12 mg/kg IV, saline solution, 2 h, read-out: Average serum concentration of 4 dogs): 55.7 ng/mL
- concentration at 4 h ([3]; iv, 0.12 mg/kg, Leg 38, 0.12 mg/kg IV, saline solution, 4 h, read-out: Average serum concentration of 4 dogs): 15.1 ng/mL
- concentration at 8 h ([3]; iv, 0.12 mg/kg, Leg 38, 0.12 mg/kg IV, saline solution, 8 h, read-out: Average serum concentration of 4 dogs): 5.74 ng/mL
- concentration at 24 h ([3]; iv, 0.12 mg/kg, Leg 38, 0.12 mg/kg IV, saline solution, 24 h, read-out: Average serum concentration of 4 dogs): 2.49 ng/mL
- concentration at 0 h ([3]; iv, 0.183 mg/kg, Leg 13, 0.183 mg/kg IV, saline solution, 0 h, read-out: Average serum concentration of 5 dogs): 0.64 ng/mL
- concentration at 5 min ([3]; iv, 0.183 mg/kg, Leg 13, 0.183 mg/kg IV, saline solution, 5 min, read-out: Average serum concentration of 5 dogs): 477 ng/mL
- concentration at 10 min ([3]; iv, 0.183 mg/kg, Leg 13, 0.183 mg/kg IV, saline solution, 10 min, read-out: Average serum concentration of 5 dogs): 756 ng/mL
- concentration at 0.25 h ([3]; iv, 0.183 mg/kg, Leg 13, 0.183 mg/kg IV, saline solution, 0.25 h, read-out: Average serum concentration of 5 dogs): 1060 ng/mL
- concentration at 20 min ([3]; iv, 0.183 mg/kg, Leg 13, 0.183 mg/kg IV, saline solution, read-out: Average serum concentration of 5 dogs): 746 ng/mL
- concentration at 25 min ([3]; iv, 0.183 mg/kg, Leg 13, 0.183 mg/kg IV, saline solution, 25 min, read-out: Average serum concentration of 5 dogs): 629 ng/mL
- concentration at 0.5 h ([3]; iv, 0.183 mg/kg, Leg 13, 0.183 mg/kg IV, saline solution, 0.5 h, read-out: Average serum concentration of 5 dogs): 523 ng/mL
- concentration at 0.75 h ([3]; iv, 0.183 mg/kg, Leg 13, 0.183 mg/kg IV, saline solution, 0.75 h, read-out: Average serum concentration of 5 dogs): 343 ng/mL
- concentration at 1 h ([3]; iv, 0.183 mg/kg, Leg 13, 0.183 mg/kg IV, saline solution, 1 h, read-out: Average serum concentration of 5 dogs): 245 ng/mL
- concentration at 1.25 h ([3]; iv, 0.183 mg/kg, Leg 13, 0.183 mg/kg IV, saline solution, 1.25 h, read-out: Average serum concentration of 5 dogs): 183 ng/mL
